IC50 data for 15 molecules are collected here from patent US20240158438A1, “POLYPEPTIDE COMPOUND AND APPLICATION THEREOF” (CHENGDU SINTANOVO BIOTECHNOLOGY CO., LTD., priority 2021, published 2024).

Non-standard residues stand in square brackets, D forms with d. Residues, ends and D or L forms follow the SMILES beside them. *: point of attachment. dBta = N[C@H](Cc1csc2ccccc12)C(=O)O; dTle = CC(C)(C)[C@@H](N)C(=O)O; Ac4c(3-oxa) = NC1(C(=O)O)COC1; X1 = N[C@H]1CCC[C@H]1C(=O)*; X2 = O=C(C12CNC[C@@H]1C2)*; dAbu = CC[C@@H](N)C(=O)O; Api = NC1(C(=O)O)CCNCC1; dAze = O=C(O)[C@H]1CCN1; Abu = CC[C@H](N)C(=O)O; βAla = NCCC(=O)O A value given as a limit tells only on which side of the number the result lay.

One data set addresses CYP 3A4 (Homo sapiens (Human), UniProt P08684). In kind it is in vitro ADME. As to conditions: microsomes, 10 min. The procedure:
(§1) Human liver microsomes containing cytochrome P450 (0.253 mg/mL protein) were incubated with test compounds (0.05-50 μM), CYPs substrates (10 μM […], 5 μM diclofenac, 30 μM mephenytoin, 5 μM dextromethorphan hydrobromide and 2 μM midazolam) and 1.0 mM NADP at 37° C. for 10 min. Naphthoflavone, sulfaphenazole, N-3-benzylnirvanol, quinidine and ketoconazole were used as reference inhibitors.

A further data set addresses CYP 2C19 (Homo sapiens (Human), UniProt P33261). It is filed as in vitro ADME. The settings on record: microsomes, 10 min. On the procedure:
as §1

For a further data set, the target named is CYP 2D6 (Homo sapiens (Human), UniProt P10635). In kind it is in vitro ADME. The settings on record: microsomes, 10 min. On the procedure:
as §1

Another data set deals with CYP 2C9 (Homo sapiens (Human), UniProt P11712). In kind it is in vitro ADME. As to conditions: microsomes, 10 min. The procedure:
as §1

The next data set addresses CYP1A2 (Homo sapiens (Human), UniProt P05177). Description: in vitro. The settings on record: microsomes; for IC50: 10 min. In kind it is in vitro ADME. The procedure:
as §1

In another data set the target is GHSR-1a (Homo sapiens (Human), UniProt Q92847). In words: Agonistic activity for GHSR-1a, FLIPR calcium assay. As to conditions: agonist activity assay, Flp In-CHO-GHSR Stable Pool cells, FLIPR calcium 6 kit; read-out: The activity (IC50) of polypeptide compounds for GHSR-1a. In kind it is cell-based. An excerpt:
The use of recombinant expression of GHSR provides several advantages; for example, the receptor can be expressed in a determined cell system, so that it is easier to distinguish between the reactions of the compounds with GHSR and the reactions with other receptors. For example, cell lines such as HEK293, COS7 and CHO that […] can be used to express GHSR, and the same cell lines without expression vectors are used as controls.
The activity of GHSR-1a can be measured using different techniques, for example, by detecting the change in the intracellular conformation of GHSR, the change in G-protein coupling activity, and/or the change in intracellular messengers. Techniques such as measuring intracellular Ca^2+ are preferably used to measure the activity of GHSR-1a. Examples of techniques known in the art that can be used to measure Ca^2+ include the use of FLIPR® calcium ion assay kits, among others. The FLIPR® calcium ion assay kits use a calcium ion sensitive indicator and a masking dye to ensure that a researcher carries out high-sensitivity fluorescent screening for G protein-coupled receptors, ion channels and other calcium ion sensitive targets. This experiment used FLIPR calcium 6 assay kits and FLIPR calcium 6-QF assay kits.
• a) Cell line: Flp In-CHO-GHSR Stable Pool; • b) Complete medium: F12K+10% fetal bovine serum+1×penicillin-streptomycin (PS)+600 μg/mL hygromycin B; • c) Cell seeding medium: F12K+10% fetal bovine serum. • d) Assay buffer: 1× HBSS+20 mM HEPES. • e) […] component A: Assay buffer and component A were left at room temperature (RT), 10 mL of buffer was added to component A, and the mixture was vortexed for 1-2 min and stored at −20° C.
• a) Compound stock solutions: the powders from in-house synthesis were made into 10 mM stock solutions in DMSO according to the standard protocol. • b) Compound storage: all compounds in DMSO were stored in room temperature desiccators for short-term storage (at most 4 months). The remaining compounds were left at −20 ° C. for long-term storage.
• a) Flp In-CHO-GHSR Stable Pool cells were cultured in complete medium. • b) The cells were placed in […] cell seeding medium in a 384-well cell culture plate (Corning, 3764) at 7k cells/well and cultured overnight at 37° C. with 5% CO2. • c) 20× component A was thawed at room temperature, diluted with assay buffer to 2×, and left at RT. • d) The Petri dish was taken out of the incubator and equilibrated at room temperature for 10 min. The medium was changed to […]. After the final wash, 20 μL of buffer was kept in each well, 20 μL of 2× component A was then added to each well, and the plate was incubated at 37° C. for 3-5 s. • e) 10 μL of 5× compound was added to the 384-well cell culture plate, and data collection was immediately performed using FLIPR Tetra.
• 1) Z′ factor=1−3×(SDMax+SDMin)/(MeanMax−MeanMin); • 2) CVMax=(SDMax/MeanMax)×100%; • 3) CVMin=(SDMin/MeanMin)×100%; • 4) S/B=Singal/Background; • 5) Calculation formula for IC50: • Y=Bottom+(Top−Bottom)/(1+10^((LogIC50−X)×HillSlope)) • X: log value of compound concentration; Y: Activation % or Inhibition %

Sequence of CYP1A2 (P05177 whole entry): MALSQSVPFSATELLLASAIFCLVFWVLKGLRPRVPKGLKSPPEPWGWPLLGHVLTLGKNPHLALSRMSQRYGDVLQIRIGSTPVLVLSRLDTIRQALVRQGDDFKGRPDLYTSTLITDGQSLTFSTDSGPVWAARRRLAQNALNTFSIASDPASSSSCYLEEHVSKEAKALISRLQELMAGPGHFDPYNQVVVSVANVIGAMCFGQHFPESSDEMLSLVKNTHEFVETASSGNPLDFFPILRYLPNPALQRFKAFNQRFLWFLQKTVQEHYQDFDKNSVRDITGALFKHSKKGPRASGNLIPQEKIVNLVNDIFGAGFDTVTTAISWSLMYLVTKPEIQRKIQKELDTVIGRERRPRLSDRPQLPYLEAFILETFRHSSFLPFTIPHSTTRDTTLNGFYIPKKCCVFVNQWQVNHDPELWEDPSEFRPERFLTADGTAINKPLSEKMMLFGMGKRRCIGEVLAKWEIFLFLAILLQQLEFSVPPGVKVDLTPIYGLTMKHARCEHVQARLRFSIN
Sequence of GHSR-1a (Q92847 whole entry): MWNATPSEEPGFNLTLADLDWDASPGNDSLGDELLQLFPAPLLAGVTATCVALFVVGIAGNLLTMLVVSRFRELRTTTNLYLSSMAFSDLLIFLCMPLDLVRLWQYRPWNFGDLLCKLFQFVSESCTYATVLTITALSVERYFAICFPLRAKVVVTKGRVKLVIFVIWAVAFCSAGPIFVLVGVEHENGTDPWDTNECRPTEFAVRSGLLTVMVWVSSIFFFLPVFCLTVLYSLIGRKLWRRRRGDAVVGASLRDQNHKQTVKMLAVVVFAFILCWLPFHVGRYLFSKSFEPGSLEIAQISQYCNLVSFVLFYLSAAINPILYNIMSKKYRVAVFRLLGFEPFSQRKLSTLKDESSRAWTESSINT
Sequence of CYP 2C9 (P11712 whole entry): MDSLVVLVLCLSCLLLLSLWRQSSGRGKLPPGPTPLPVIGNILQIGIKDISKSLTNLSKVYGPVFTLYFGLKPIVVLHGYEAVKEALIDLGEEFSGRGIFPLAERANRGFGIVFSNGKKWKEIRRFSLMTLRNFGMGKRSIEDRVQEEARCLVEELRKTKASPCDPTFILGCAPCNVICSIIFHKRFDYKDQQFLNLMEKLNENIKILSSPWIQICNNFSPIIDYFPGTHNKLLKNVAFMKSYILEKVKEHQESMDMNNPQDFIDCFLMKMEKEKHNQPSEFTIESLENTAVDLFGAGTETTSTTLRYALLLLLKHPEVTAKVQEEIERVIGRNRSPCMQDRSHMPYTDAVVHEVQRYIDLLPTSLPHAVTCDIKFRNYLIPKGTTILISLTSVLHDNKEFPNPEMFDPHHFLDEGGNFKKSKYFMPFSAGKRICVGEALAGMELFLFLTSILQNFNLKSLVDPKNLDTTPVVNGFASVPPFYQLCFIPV
Sequence of CYP 2C19 (P33261 whole entry): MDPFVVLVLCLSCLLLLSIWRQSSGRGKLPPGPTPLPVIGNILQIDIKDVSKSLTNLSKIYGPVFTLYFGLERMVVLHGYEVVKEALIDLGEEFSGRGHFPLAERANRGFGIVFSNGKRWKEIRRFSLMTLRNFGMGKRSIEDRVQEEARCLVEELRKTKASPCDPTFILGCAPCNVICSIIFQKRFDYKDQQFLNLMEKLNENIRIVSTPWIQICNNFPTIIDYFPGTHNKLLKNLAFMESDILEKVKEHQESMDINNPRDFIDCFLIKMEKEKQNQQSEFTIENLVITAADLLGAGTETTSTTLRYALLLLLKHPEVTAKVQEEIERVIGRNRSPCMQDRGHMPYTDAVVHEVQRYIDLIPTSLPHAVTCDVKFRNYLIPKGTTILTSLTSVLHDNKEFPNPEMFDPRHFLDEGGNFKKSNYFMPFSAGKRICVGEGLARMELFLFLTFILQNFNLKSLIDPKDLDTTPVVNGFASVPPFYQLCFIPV
Sequence of CYP 2D6 (P10635 whole entry): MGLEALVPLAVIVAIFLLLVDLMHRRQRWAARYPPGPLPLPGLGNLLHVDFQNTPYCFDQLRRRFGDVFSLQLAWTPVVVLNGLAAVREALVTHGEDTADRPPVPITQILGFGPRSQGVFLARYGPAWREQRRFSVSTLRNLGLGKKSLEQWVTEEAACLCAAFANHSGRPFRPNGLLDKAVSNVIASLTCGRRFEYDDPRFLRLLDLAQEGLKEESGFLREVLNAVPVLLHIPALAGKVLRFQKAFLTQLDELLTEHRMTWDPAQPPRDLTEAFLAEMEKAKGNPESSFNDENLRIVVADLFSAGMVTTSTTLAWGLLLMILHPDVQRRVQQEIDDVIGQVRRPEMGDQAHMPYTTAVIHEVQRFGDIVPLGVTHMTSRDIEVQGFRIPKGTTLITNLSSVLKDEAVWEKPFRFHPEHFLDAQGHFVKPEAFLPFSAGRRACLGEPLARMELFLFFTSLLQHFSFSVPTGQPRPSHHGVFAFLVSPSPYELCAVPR
Sequence of CYP 3A4 (P08684 whole entry): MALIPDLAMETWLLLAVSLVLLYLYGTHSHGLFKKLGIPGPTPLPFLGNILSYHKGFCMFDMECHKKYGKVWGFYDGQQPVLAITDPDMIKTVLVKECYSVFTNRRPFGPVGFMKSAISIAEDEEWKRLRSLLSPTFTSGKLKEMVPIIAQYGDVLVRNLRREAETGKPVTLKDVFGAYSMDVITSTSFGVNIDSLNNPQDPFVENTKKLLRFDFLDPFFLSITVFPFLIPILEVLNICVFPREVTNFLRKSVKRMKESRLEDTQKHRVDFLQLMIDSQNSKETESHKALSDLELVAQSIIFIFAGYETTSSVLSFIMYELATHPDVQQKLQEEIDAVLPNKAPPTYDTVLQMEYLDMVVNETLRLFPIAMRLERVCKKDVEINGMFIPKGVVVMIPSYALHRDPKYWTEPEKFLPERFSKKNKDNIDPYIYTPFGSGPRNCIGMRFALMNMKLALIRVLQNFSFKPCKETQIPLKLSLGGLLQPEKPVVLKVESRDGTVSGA

Regarding `NCC1(C(=O)N[C@H](Cc2csc3ccccc23)C(=O)N[C@H](Cc2c[nH]c3ccccc23)C(=O)N[C@@H](Cc2ccccc2)C(N)=O)CCC1` [Compound 72], the IC50 is above 50 µM against CYP 3A4; above 50 µM at CYP 2C19; above 50 µM at CYP 2D6; above 50 µM against CYP 2C9; 0.004 µM on GHSR-1a. On CYP1A2, this molecule gave an IC50 at 10 min above 50 µM.
Turning to `CC[C@H](N)C(=O)N[C@H](Cc1csc2ccccc12)C(=O)N[C@H](Cc1c[nH]c2ccccc12)C(=O)N[C@@H](Cc1ccccc1)C(=O)N[C@H](CCCCN)C(N)=O` [Compound 33] (H-[Abu][dBta][dW]F[dK]-NH2), the IC50 was above 50 µM against CYP 3A4; above 50 µM on CYP 2C19; above 50 µM on CYP 2D6; above 50 µM against CYP 2C9; above 50 µM on CYP1A2; 0.0031 µM on GHSR-1a.
`NC(=O)C1(NC(=O)[C@H](Cc2ccccc2)NC(=O)[C@@H](Cc2c[nH]c3ccccc23)NC(=O)[C@@H](Cc2csc3ccccc23)NC(=O)C23CNC[C@@H]2C3)CCNCC1` (stereo partly drawn) [Compound 30] (X2-[dBta][dW]F[Api]-NH2): the IC50 against CYP 3A4 was above 50 µM; against CYP 2C19, above 50 µM; on CYP 2D6, above 50 µM; at CYP 2C9, above 50 µM; against CYP1A2, above 50 µM; at GHSR-1a, 0.0134 µM.
Consider `CC[C@H](N)C(=O)N[C@H](Cc1csc2ccccc12)C(=O)N[C@H](Cc1c[nH]c2ccccc12)C(=O)N[C@@H](Cc1ccccc1)C(=O)NC1(C(N)=O)CCNCC1` [Compound 3] (H-[Abu][dBta][dW]F[Api]-NH2), for which the IC50 against CYP 3A4 is above 50 µM; against CYP 2C19, above 50 µM; on CYP 2D6, above 50 µM; at CYP 2C9 it was above 50 µM; against CYP1A2, above 50 µM; on GHSR-1a it was 0.0172 µM.
Turning to `NC(=O)[C@H](Cc1ccccc1)NC(=O)[C@@H](Cc1c[nH]c2ccccc12)NC(=O)[C@@H](Cc1csc2ccccc12)NC(=O)[C@@]12CNC[C@@H]1C2` [Compound 80], the IC50 against CYP 3A4 was above 50 µM; at CYP 2C19, above 50 µM; against CYP 2D6 it was above 50 µM; against CYP 2C9 it was above 50 µM; at GHSR-1a, 0.0351 µM. This molecule displayed an IC50 at 10 min against CYP1A2 above 50 µM.
For the molecule `NCCC(=O)N[C@H](Cc1csc2ccccc12)C(=O)N[C@H](Cc1c[nH]c2ccccc12)C(=O)N[C@@H](Cc1ccccc1)C(=O)NC1(C(N)=O)CCNCC1` [Compound 16] (H-[βAla][dBta][dW]F[Api]-NH2), the IC50 on CYP 3A4 was 19.8 µM; against CYP 2C19 it was above 50 µM; at CYP 2D6, 35.4 µM; against CYP 2C9, above 50 µM; at CYP1A2, above 50 µM; on GHSR-1a, 0.0007 µM.
In the case of `NCCCC[C@@H](NC(=O)[C@H](Cc1ccccc1)NC(=O)[C@@H](Cc1c[nH]c2ccccc12)NC(=O)[C@@H](Cc1csc2ccccc12)NC(=O)[C@@H]1CCCN1)C(N)=O` [Compound 45] (H-P[dBta][dW]F[dK]-NH2), the IC50 against CYP 3A4 is above 50 µM; against CYP 2C19, above 50 µM; against CYP 2D6, above 50 µM; against CYP 2C9, above 50 µM; on CYP1A2, above 50 µM; on GHSR-1a, 0.0051 µM.
`CC(C)(C)[C@@H](N)C(=O)N[C@H](Cc1csc2ccccc12)C(=O)N[C@H](Cc1c[nH]c2ccccc12)C(=O)N[C@@H](Cc1ccccc1)C(=O)N[C@H](CCCCN)C(N)=O` [Compound 47] (H-[dTle][dBta][dW]F[dK]-NH2): the IC50 is above 50 µM at CYP 3A4; above 50 µM against CYP 2C19; above 50 µM on CYP 2D6; above 50 µM against CYP 2C9; above 50 µM at CYP1A2; 0.0107 µM at GHSR-1a.
`NC(=O)C1(NC(=O)[C@H](Cc2ccccc2)NC(=O)[C@@H](Cc2c[nH]c3ccccc23)NC(=O)[C@@H](Cc2csc3ccccc23)NC(=O)[C@H]2CCN2)CCNCC1` [Compound 25] (H-[dAze][dBta][dW]F[Api]-NH2): the IC50 is above 50 µM on CYP 3A4; above 50 µM on CYP 2C19; above 50 µM against CYP 2D6; above 50 µM against CYP 2C9; above 50 µM on CYP1A2; 0.0181 µM at GHSR-1a.
Take `NCCCC[C@@H](NC(=O)[C@H](Cc1ccccc1)NC(=O)[C@@H](Cc1c[nH]c2ccccc12)NC(=O)[C@@H](Cc1csc2ccccc12)NC(=O)[C@@H]1CCC[C@@H]1N)C(N)=O` [Compound 51] (X1-[dBta][dW]F[dK]-NH2): the IC50 on CYP 3A4 was above 50 µM; against CYP 2C19, above 50 µM; against CYP 2D6 it was above 50 µM; at CYP 2C9 it was above 50 µM; against CYP1A2, above 50 µM; on GHSR-1a, 0.0032 µM.
On to `C[C@@H](N)C(=O)N[C@H](Cc1csc2ccccc12)C(=O)N[C@H](Cc1c[nH]c2ccccc12)C(=O)N[C@@H](Cc1ccccc1)C(=O)NC1(C(N)=O)CCNCC1` [Compound 12] (H-[dA][dBta][dW]F[Api]-NH2), for which the IC50 at CYP 3A4 was above 50 µM; against CYP 2C19, above 50 µM; at CYP 2D6, above 50 µM; at CYP 2C9, above 50 µM; on CYP1A2 it was above 50 µM; at GHSR-1a, 0.0537 µM.
As to `NCCCC[C@@H](NC(=O)[C@H](Cc1ccccc1)NC(=O)[C@@H](Cc1c[nH]c2ccccc12)NC(=O)[C@@H](Cc1csc2ccccc12)NC(=O)CCN)C(N)=O` [Compound 46] (H-[βAla][dBta][dW]F[dK]-NH2), the IC50 is above 50 µM against CYP 3A4; above 50 µM on CYP 2C19; above 50 µM against CYP 2D6; above 50 µM against CYP 2C9; above 50 µM at CYP1A2; 0.0028 µM at GHSR-1a.
For `CC[C@@H](N)C(=O)N[C@H](Cc1csc2ccccc12)C(=O)N[C@H](Cc1c[nH]c2ccccc12)C(=O)N[C@@H](Cc1ccccc1)C(=O)NC1(C(N)=O)CCNCC1` [Compound 2] (H-[dAbu][dBta][dW]F[Api]-NH2), the IC50 against CYP 3A4 is 20 µM; against CYP 2C19 it was above 50 µM; on CYP 2D6 it was above 50 µM; against CYP 2C9, above 50 µM; on CYP1A2 it was above 50 µM; at GHSR-1a, 0.0035 µM.
With `NCCCC[C@@H](NC(=O)[C@H](Cc1ccccc1)NC(=O)[C@@H](Cc1c[nH]c2ccccc12)NC(=O)[C@@H](Cc1csc2ccccc12)NC(=O)C1(N)COC1)C(N)=O` [Compound 54] (H-[Ac4c(3-oxa)][dBta][dW]F[dK]-NH2), the IC50 on CYP 3A4 is above 50 µM; against CYP 2C19 it was above 50 µM; against CYP 2D6 it was above 50 µM; at CYP 2C9, above 50 µM; against CYP1A2, above 50 µM; on GHSR-1a, 0.0139 µM.
Turning to `CC(C)[C@@H](N)C(=O)N[C@H](Cc1csc2ccccc12)C(=O)N[C@H](Cc1c[nH]c2ccccc12)C(=O)N[C@@H](Cc1ccccc1)C(=O)NC1(C(N)=O)CCNCC1` [Compound 13] (H-[dV][dBta][dW]F[Api]-NH2), the IC50 at CYP 3A4 was above 50 µM; against CYP 2C19 it was above 50 µM; on CYP 2D6, above 50 µM; against CYP 2C9, above 50 µM; against CYP1A2, above 50 µM; at GHSR-1a it was 0.0435 µM.
